# Reference: patent EP0083683A1, “Method of preparing 1,4-bis(substituted-amino)-5,8-dihydroxyanthraquinones and pharmaceutical compositions containing them” (AMERICAN CYANAMID COMPANY, priority 1981, dated 1983)
# How the values were obtained:
# [1] = tested on: lymphocytic leukemia P388; assay: Lymphocytic leukemia P388 test; format: in vivo, DBA/2 mice
# Description: The animals used are DBA/2 mice all of one sex, weighing a minimum of 17 g. and all within a 3 g. weight range. There are 5 or 6 animals per test group. The tumor transplant is by intraperitoneal injection of 0.5 ml. of dilute ascitic fluid containing 10^6 cells of lymphocytic leukemia P388. The test compounds are administered intraperitoneally on days one, 5 and 9 (relative to tumor inoculation) at various doses. […] The median survival time and the ratio of survival time for treated (T)/control (C) animals are calculated. The positive control compound is 5-fluorouracil given as a 60 mg./kg. injection. The results of this test with representative compounds of the present invention appear in Table I. The criterion for efficacy is T/C x 100>125%.
# melanotic melanoma B16 = assay: Melanotic Melanoma B16 test; format: in vivo, BDF1 mice
# Description: The animals used are BDF1 mice, all of the same sex, weighing a minimum of 17 g. and all within a 3 g. weight range. There are normally 10 animals per test group. A one-gram portion of melanotic melanoma B16 tumor is homogenized in 10 ml. of cold balanced salt solution and a 0.5 ml. aliquot of the homogenate is implanted intraperitoneally into each of the test mice. The test compounds are administered intraperitoneally on days one through 9 (relative to tumor inoculation) at various doses. The animals are weighed and survivors are recorded on a regular basis for 60 days. The median survival time and the ratio of survival time for treated (T)/control (C) animals are calculated. The positive control compound is 5-fluorouracil given as a 20 mg./kg. injection. The criterion for efficacy is T/C x 100 >125%.
# [2] = 1st test, positive control, dose 60 mg./kg.
# [3] = 2nd test, positive control, dose 60 mg./kg.
# [4] = positive control, dose 20.0 mg./kg.
# [5] = 1st test, dose 0.78 mg./kg. intraperitoneally on days 1, 5 and 9
# [6] = 1st test, dose 1.56 mg./kg. intraperitoneally on days 1, 5 and 9
# [7] = 1st test, dose 3.12 mg./kg. intraperitoneally on days 1, 5 and 9
# [8] = 1st test, dose 6.25 mg./kg. intraperitoneally on days 1, 5 and 9
# [9] = 2nd test, dose 0.10 mg./kg. intraperitoneally on days 1, 5 and 9
# [10] = 2nd test, dose 0.19 mg./kg. intraperitoneally on days 1, 5 and 9
# [11] = 2nd test, dose 0.39 mg./kg. intraperitoneally on days 1, 5 and 9
# [12] = 2nd test, dose 0.78 mg./kg. intraperitoneally on days 1, 5 and 9
# [13] = 2nd test, dose 1.56 mg./kg. intraperitoneally on days 1, 5 and 9
# [14] = 2nd test, dose 3.12 mg./kg. intraperitoneally on days 1, 5 and 9
# [15] = 2nd test, dose 6.25 mg./kg. intraperitoneally on days 1, 5 and 9
# [16] = dose 0.09 mg./kg. intraperitoneally on days one through 9
# [17] = dose 0.19 mg./kg. intraperitoneally on days one through 9
# [18] = dose 0.37 mg./kg. intraperitoneally on days one through 9
# [19] = dose 0.75 mg./kg. intraperitoneally on days one through 9
# [20] = dose 1.5 mg./kg. intraperitoneally on days one through 9
smiles,measurement,setting,value
"O=c1[nH]cc(F)c(=O)[nH]1 [5-Fluorouracil, 5-fluorouracil, reference compound]",Median Survival Time,[1]; [2],21.0 days
same,T/C x 100 (Percent),[1]; [2],191%
same,Median Survival Time,[1]; [3],21.5 days
same,T/C x 100 (Percent),[1]; [3],195%
same,Median Survival Time,melanotic melanoma B16; [4],26.0 days
same,T/C x 100 (Percent),melanotic melanoma B16; [4],137%
"O=C1c2c(O)ccc(O)c2C(=O)c2c(NCCN3CCOC3)ccc(NCCN3CCOC3)c21 [l,4-Dihydroxy-5,8-bis[[2-(3-oxazolidinyl)ethyl]amino]-anthraquinone]",Median Survival Time,[1]; [5],23.0 days
same,T/C x 100 (Percent),[1]; [5],209%
same,Median Survival Time,[1]; [6],23.5 days
same,T/C x 100 (Percent),[1]; [6],214%
same,"""Cures"" = number of survivors/total at 60 days",[1]; [7],1/6
same,Median Survival Time,[1]; [7],29.5 days
same,T/C x 100 (Percent),[1]; [7],268%
same,"""Cures"" = number of survivors/total at 60 days",[1]; [8],2/6
same,Median Survival Time,[1]; [8],>30.0 days
same,T/C x 100 (Percent),[1]; [8],>273%
same,Median Survival Time,[1]; [9],19.5 days
same,T/C x 100 (Percent),[1]; [9],177%
same,Median Survival Time,[1]; [10],23.5 days
same,T/C x 100 (Percent),[1]; [10],214%
same,Median Survival Time,[1]; [11],23.5 days
same,T/C x 100 (Percent),[1]; [11],214%
same,Median Survival Time,[1]; [12],22.0 days
same,T/C x 100 (Percent),[1]; [12],200%
same,"""Cures"" = number of survivors/total at 60 days",[1]; [13],1/6
same,Median Survival Time,[1]; [13],30.0 days
same,T/C x 100 (Percent),[1]; [13],273%
same,Median Survival Time,[1]; [14],>30.0 days
same,T/C x 100 (Percent),[1]; [14],>273%
same,Median Survival Time,[1]; [15],14.0 days
same,T/C x 100 (Percent),[1]; [15],127%
same,Median Survival Time,melanotic melanoma B16; [16],29.0 days
same,T/C x 100 (Percent),melanotic melanoma B16; [16],153%
same,Median Survival Time,melanotic melanoma B16; [17],31.0 days
same,T/C x 100 (Percent),melanotic melanoma B16; [17],163%
same,Median Survival Time,melanotic melanoma B16; [18],49.5 days
same,T/C x 100 (Percent),melanotic melanoma B16; [18],260%
same,Median Survival Time,melanotic melanoma B16; [19],46.0 days
same,T/C x 100 (Percent),melanotic melanoma B16; [19],242%
same,Median Survival Time,melanotic melanoma B16; [20],55.5 days
same,T/C x 100 (Percent),melanotic melanoma B16; [20],292%
